This note sets out measurements from patent US5204364A, “N-imidazolyl- and N-imidazolylmethyl-derivatives of substituted bicyclic compounds” (Farmitalia Carlo Erba, S.r.l., priority 1988, dated 1993).

Where two headings read alike, the source gives them in different places. Some results are limits rather than exact numbers.

Data set [1] has as its system TxA2 synthase. Description: TxB2 synthesis (TxA2 synthase activity) in whole blood of normal rats during clotting, in vitro. The class given is cell-based, rat (Sprague Dawley). The note with it: Rattus norvegicus, read-out: In vitro effect on TxB2 synthesis in normal rats, IC50. The method, then: The compounds of formula (I) were for example tested for their ability to inhibit TxA2 synthase activity (as reflected by TxB2 generated in whole blood during clotting) in vitro in the rat.
The effect of a representative group of compounds according to the present invention on TxB2 synthesis was evaluated in comparison with known products in whole blood of normal Sprague Dawley rats (Charles River Italy). Blood was withdrawn from the abdominal aorta of the animals under light ether anaesthesia. The blood was immediately divided in portions of 0.5 ml and distributed in glass tubes each containing a concentration of the test compound, or of the reference compounds.
Samples were then allowed to clot for 1 hour at 37° C., centrifuged at 3000 rpm for 10 min, serum collected and stored at -20° C. until assayed.

Data set [2] in a line: orientative acute toxicity, single oral administration. The note with it: in vivo, fasted mice and rats, assessed on the seventh day. The method, then:
The toxicity of the compounds of the invention is negligible, therefore they can be safely used in therapy. Mice and rats which had been deprived of food for nine hours were treated orally with single administrations of increasing doses of compounds of the invention, then housed and normally fed. The orientative acute toxicity (LD50) was assessed on the seventh day after the treatment and e.g. in the compound added as FCE 26572, was higher than 800 mg/kg.

Setting [3] is: whole blood, clotted 1 hour at 37° C., TxB2 by RIA, limits for p = 0.95.

What is called IC50 is the concentration that inhibits the measured activity by half. For `CC(=O)Oc1ccccc1C(=O)O` [ASA, Acetyl salicyclic acid, reference compound], in data set [1] (1 h), the half-maximal inhibitory concentration (IC50) came to 31000 nM.

On to `O=C(O)c1ccc2c(c1)C=C(n1ccnc1)CC2` [FCE 22178, 5,6dihydro-7-(1H-imidazol-1-yl)-2-naphthalenecarboxylic acid, reference compound], for which the IC50 in data set [1] (setting [3]) was 1000 nM.

For the compound `CC1=C(n2ccnc2)CCc2ccc(C(=O)O)cc21` [FCE 25672, 5,6-dihydro-7-(1H-imidazol-1-yl)-8-methyl-2-naphthalenecarboxylic acid], the IC50 in data set [1] (setting [3]) was determined as 290 nM.

On to `C=C1c2cc(C(=O)O)ccc2CCC1n1ccnc1` (stereo not drawn) [FCE 26252, 5,6,7,8-tetrahydro-7-(1H-imidazol-1-yl)-8-methylene-2-naphthalenecarboxylic acid], for which the IC50 in data set [1] (setting [3]) was 740 nM.

With `CC1=C(Cn2ccnc2)CCc2ccc(C(=O)O)cc21` [FCE 26333, 5,6-dihydro-7-(1H-imidazol-1-ylmethyl)-8-methyl-2-naphthalenecarboxylic acid], the IC50 in data set [1] (setting [3]) was 43 nM.

What is called LD50 is the dose expected to kill half of the subjects tested. Read a high LD50 as a less toxic substance. In the case of `CC1=C(n2ccnc2)CCc2ccc(C(=O)O)cc21` [FCE 26572], in data set [2], the LD50 at 168 h was over 800 mg/kg.
